The values that follow come from paper PMC4344207 (PLoS ONE, 2015).

The test system of data set [1] is exendin-4 degradation in rat kidney homogenate. As to the kind of experiment: Inhibition of exendin-4 metabolism by protease inhibitors in rat kidney homogenate. In kind it is biochemical.
Data set [2] deals with exendin-4 degradation in rat liver homogenate. Description: Inhibition of exendin-4 metabolism by protease inhibitors in rat liver homogenate. The class given is biochemical.
The conditions of data set [3]: humans, biologically active GLP-1; cited from earlier work. From the text:
(§1) In 2003, the International Diabetes Federation (IDF) estimated that almost 200 million people around the world had diabetes mellitus (DM). Approximately 90–95% of people with DM have type 2 diabetes mellitus (T2DM), which is characterized by hyperglycemia, insulin resistance, absolute or relative insulin deficiency, hyperglucagonemia, and increased hepatic glucose production. An optimal therapy for controlling the circulating glucose levels has not been established, and many currently available therapies are associated with unfavorable side effects, which limit their use. […] Although naturally resist ...

Data set [4] deals with plasma dipeptidyl peptidase-IV (DPP-IV). The note with it: circulating GLP-1, rat and human plasma DPP-IV; cited from earlier work.
Source text: as §1

Read-outs that look alike come from different tables or passages of the source.

For the molecule `O=S(=O)(F)Cc1ccccc1` [PMSF, phenylmethylsulfonyl fluoride], the “percentage inhibition of exendin-4 degradation, kidney” value (“percentage inhibition … kidney” for short) in data set [1] turned out to be 18%. For the same molecule, in data set [2], the “percentage inhibition of exendin-4 degradation, liver” value (“percentage inhibition … liver” for short) stood at 65%.

Consider `CC(C)C[C@H](NC(=O)[C@@H](O)[C@H](N)Cc1ccccc1)C(=O)O` [bestatin], for which, in data set [1], the “percentage inhibition … kidney” value was determined as 11%. Besides, in data set [2], the “percentage inhibition … liver” value is given as 48%.

As for `CCN1C(=O)C=CC1=O` [NEM, N-ethylmaleimide], in data set [1], the “percentage inhibition … kidney” value was “not inhibited”. Besides, the “percentage inhibition … liver” value in data set [2] is “not inhibited”.

For the molecule `c1cnc2c(c1)ccc1cccnc12` [1,10-phenanthroline], the “percentage inhibition … kidney” value in data set [1] is recorded as above 77%. Further, in data set [2], the “percentage inhibition … liver” value is reported as above 77%.

As to `O=C(O)CNC(=O)C(CS)Cc1ccccc1` (racemic) [DL-thiorphan], in data set [1] (rat kidney homogenate, inhibitor pre-incubated 10 min at 37°C, then exendin-4 10 μM for 30 min, NEM 10 mM, phenanthroline 2 mM, PPACK 210 μM, soybean 1 mg/mL, DL-thiorphan 2 mM, captopril 30 μM, DFP 10 mM, PMSF 1 mM, amastatin 100 μM, bestatin 2 mM, LC-ESI-MS, n = 3), the “percentage inhibition … kidney” value was 73%. Further, the “percentage inhibition … liver” value in data set [2] (rat liver homogenate, inhibitor pre-incubated 10 min at 37°C, then exendin-4 10 μM for 60 min, NEM 10 mM, phenanthroline 2 mM, PPACK 210 μM, soybean 1 mg/mL, DL-thiorphan 2 mM, captopril 30 μM, DFP 10 mM, PMSF 1 mM, amastatin 100 μM, bestatin 2 mM, LC-ESI-MS, n = 3) is recorded as “no effect”.

glucagon-like peptide 1 [GLP-1]: the apparent serum half-life in data set [3] is 1 to 2 min. The “cleavage by rat and human plasma DPP-IV” value in data set [4] was “rapid proteolytic cleavage”.

For `NC(N)=NCCC[C@H](NC(=O)[C@@H]1CCCN1C(=O)[C@H](N)Cc1ccccc1)C(=O)CCl` [PPACK], in data set [1], the “percentage inhibition … kidney” value stood at 41%. The “percentage inhibition … liver” value in data set [2] was “no effect”.

As to `CC(C)C[C@@H](N)[C@H](O)C(=O)N[C@H](C(=O)N[C@H](C(=O)N[C@@H](CC(=O)O)C(=O)O)C(C)C)C(C)C` [amastatin], in data set [1], the “percentage inhibition … kidney” value was found to be 32%. Also, in data set [2], the “percentage inhibition … liver” value is recorded as 13.2%.

Take `C[C@H](CS)C(=O)N1CCC[C@H]1C(=O)O` [captopril]: the “percentage inhibition … kidney” value in data set [1] was “not inhibited”. Further, the “percentage inhibition … liver” value in data set [2] is recorded as “not inhibited”.

B1: trypsin inhibitor (soybean): soybean trypsin inhibitor (protein, UniProt P01070 25-205, looked up)
Trypsin inhibitor A: DFVLDNEGNPLENGGTYYILSDITAFGGIRAAPTGNERCPLTVVQSRNELDKGIGTIISSPYRIRFIAEGHPLSLKFDSFAVIMLCVGIPTEWSVVEDLPEGPAVKIGENKDAMDGWFRLERVSDDEFNNYKLVFCPQQAEDDKCGDIGISIDHDDGTRRLVVSKNKPLVVQFQKLDKESL
Turning to B1, the “percentage inhibition … kidney” value in data set [1] is “no effect”. The “percentage inhibition … liver” value in data set [2] is recorded as 20%.
